pIC50: −log10 of the molar value. Activity calls are given as the source filed them. How the calls were made is not given here.
These compounds were tested on Trypanosoma brucei growth inhibition, luminescence (assay: Trypanosoma brucei growth inhibition, luminescence (AID 1159562);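 further: parasites grew with compound for 24 h before the luminescence read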).

pIC50 | IC50 | SMILES
4.89 |  | COc1ccc(Nc2nc(-c3ccccn3)cc(N3CCCC(O)C3)n2)cc1 (stereo unspecified)
6.10 |  | CCOC(=O)c1cn[nH]c1S(=O)(=O)N1CCC1c1ccccc1 (stereo unspecified)
5.30 |  | CN(C)CCN(C)Cc1ccc(F)cc1NS(=O)(=O)c1ccc(Cl)c(Cl)c1
6.20 |  | O=C(NNC(=O)c1ccccn1)c1ccc(-c2ccccc2)cc1
6.49 |  | O=C(Nc1ccc(C(=O)N2CCCC2c2ccc3c(c2)OCCCO3)cc1)c1ccco1 (stereo unspecified)
6.20 |  | Cc1ccccc1NS(=O)(=O)c1ccc2[nH]cc(C(=O)NC3CCCC3)c(=O)c2c1
 | > 40000 nM (inactive) | N#Cc1ccc(S(=O)(=O)N2CCC3(CCN(c4ccccc4)C3=O)CC2)cc1
7.00 |  | CC(C)c1cc(Nc2cc(Cc3ccccc3)nc(NC3CCC(O)CC3)n2)n[nH]1 (stereo unspecified)
 | > 40000 nM (inactive) | Cn1cncc1CN1CCC2(CC1)COC(Cc1ccccc1)C2 (stereo unspecified)
 | > 40000 nM (inactive) | CC1=NN(C(=O)CCn2cnc([N+](=O)[O-])n2)C(O)(C(F)(F)F)C1 (stereo unspecified)
6.80 |  | CCCCc1cc(Nc2cc(C3CCC3)[nH]n2)nc(N2CCC2C(N)=O)n1 (stereo unspecified)
 | > 40000 nM (inactive) | Cc1ccc(NC(=O)C(C)n2nc([N+](=O)[O-])c(Br)c2C)cc1Cl (stereo unspecified)
6.20 |  | CCN(CC)S(=O)(=O)c1ccc(OC)c(NC(=O)c2ccc([N+](=O)[O-])s2)c1
6.70 |  | N#Cc1ccc(Br)cc1[N+](=O)[O-]
6.40 |  | CC(=O)Nc1ccc(CN2CCC(N3CC(c4ccccc4)(c4ccccc4)OCC3=O)CC2)cc1
5.70 |  | COc1ccccc1CNc1cc(C2CC2)nc(-c2nccn2C)n1
 | > 40000 nM (inactive) | COc1cccc(C(=O)[C@H]2C[C@@H]2CN(Cc2cccnc2)Cc2cccnc2)c1
6.10 |  | CS(=O)(=O)c1ccc(Nc2nccc(Nc3n[nH]c4ccc(F)cc34)n2)c(F)c1
6.30 |  | CCOc1ccc(CC(=O)N2c3ccccc3CC2C(=O)NC)cc1 (stereo unspecified)
5.10 |  | O=C(CN1CCC2(O)CCCCC2C1c1ccc2c(c1)OCO2)Nc1ccc(Cl)cc1Cl (stereo unspecified)

SMILES | pIC50 | IC50
CC(C)(C)C(O)(CCc1ccc(Cl)cc1)Cn1cncn1 (stereo unspecified) |  | > 40000 nM (inactive)

From PubChem BioAssay AID1159562 (GlaxoSmithKline (GSK), 2015)
